What was measured:
Folsomia candida = settings: chronic/long-term; mortality
Apis mellifera = settings: acute, mortality
Canidae = settings: chronic; duration: 1 years; oral; Dog Other; organ weight
Bibionidae = settings: chronic/long-term; duration: 28 days; seedling emergence
Pontoscolex corethrurus = settings: chronic/long-term; growth
Mus musculus = settings: chronic; duration: 18 months; mortality
Daphnia magna = settings: chronic/long-term; duration: 21 days; reproduction
Oryctolagus sp. = settings: developmental; development

## CC(COc1ccc(Oc2ccccc2)cc1)Oc1ccccn1 (centres undefined) [Pyriproxyfen]
Anas platyrhynchos; acute, oral, unspecified, mortality
  LD50: > 1910 mg/kg-day
Anas platyrhynchos; chronic/long-term
  NOEC: 70.2 mg/kg-day
Anas platyrhynchos; short-term, oral, feed, mortality
  LC50: > 1260 mg/kg-day
Folsomia candida
  NOEC: 12.5 mg/kg
Apis mellifera; dermal
  LD50: > 100 µg/piece
Apis mellifera; oral, unspecified
  LD50: 74 µg/piece
Canidae
  NOAEL: 10 mg/kg-day
Bibionidae
  NOEC: 3.1 µg/L
Pontoscolex corethrurus
  NOEC: 50 mg/kg
Mus musculus
  LOAEL: 16.4 mg/kg-day
Daphnia magna
  NOEC: 0.015 µg/L
Oryctolagus sp.
  NOAEL: 100 mg/kg-day
Rattus norvegicus; acute, oral, mortality
  LD50: > 5000 mg/kg-day
Rattus norvegicus; reproduction developmental, organ weight
  NOAEL: 13.3 mg/kg-day

From EPA's ToxValDB 9.5 (doi:10.2903/j.efsa.2019.5732)
